These results are taken from US8598183B2, “Solid state forms of a potent HCV inhibitor” (Boehringer Ingelheim International GmbH, priority 2010, dated 2013).

Series [1] has as its target HCV NS5B RNA-dependent RNA polymerase (Hepatitis C virus genotype 1a, UniProt P27958). To be noted: cited from earlier work.
A short description of series [2]: Solubility of Compound (1) in physiological pH range; thermodynamic solubility. The conditions noted are these: aqueous buffer, thermodynamic from solid; physiological pH range of 2-6.8. Format: physicochemical. The method, then:
Doses of Compound (1) up to 400 to 600 mg per dose may be required to be delivered to obtain exposures necessary for sufficient efficacy in vivo. Based on thermodynamic solubility of Compound (1), solubility of 0.005-0.01 mg/ml is estimated for Compound (1) sodium salt.

Series [3] is described as follows: Physical and chemical stability under accelerated storage conditions. Format: physicochemical. The method, then: The glass transition temperature of the amorphous form of Compound (1) sodium salt is >200° C., which is quite atypical for pharmaceutical active materials and can be considered an unexpected finding.
A short description of series [4]: Powder dissolution testing in pH 6.8 buffer, USP Type II Paddle apparatus. The series is classed as physicochemical. The conditions noted are these: 60 minutes.

Sequence of HCV NS5B RNA-dependent RNA polymerase (P27958 2421-3011): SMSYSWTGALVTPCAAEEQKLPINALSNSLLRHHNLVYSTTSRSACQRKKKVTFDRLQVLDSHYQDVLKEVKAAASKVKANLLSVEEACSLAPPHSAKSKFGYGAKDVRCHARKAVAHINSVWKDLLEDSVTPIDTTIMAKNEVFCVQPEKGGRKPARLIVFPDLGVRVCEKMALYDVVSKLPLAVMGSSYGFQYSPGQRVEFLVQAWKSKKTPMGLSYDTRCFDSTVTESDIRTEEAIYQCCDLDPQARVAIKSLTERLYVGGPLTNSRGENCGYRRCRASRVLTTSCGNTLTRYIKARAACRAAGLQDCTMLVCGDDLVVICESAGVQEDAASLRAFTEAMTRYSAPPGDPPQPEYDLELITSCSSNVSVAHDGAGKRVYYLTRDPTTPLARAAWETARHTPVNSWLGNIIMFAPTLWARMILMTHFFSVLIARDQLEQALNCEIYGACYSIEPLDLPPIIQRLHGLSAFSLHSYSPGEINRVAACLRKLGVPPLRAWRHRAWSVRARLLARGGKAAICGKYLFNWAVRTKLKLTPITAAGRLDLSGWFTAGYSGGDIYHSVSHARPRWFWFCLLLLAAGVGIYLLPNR

`Cn1c(C2(NC(=O)c3ccc4c(C5CCCC5)c(-c5ncc(Br)cn5)n(C)c4c3)CCC2)nc2ccc(/C=C/C(=O)O)cc21` [Compound (1), (E)-3-[2-(1-{[2-(5-Bromo-pyrimidin-2-yl)-3-cyclopentyl-1-methyl-1H-indole-6-carbonyl]-amino}-cyclobutyl)-3-methyl-3H-benzimidazol-5-yl]-acrylic acid]: the “inhibition of HCV NS5B RNA-dependent RNA polymerase” value in series [1] is “selective and potent inhibitor”. Moreover, the solubility in series [2] was < 0.2 µg/mL.

Regarding `Cn1c(C2(NC(=O)c3ccc4c(C5CCCC5)c(-c5ncc(Br)cn5)n(C)c4c3)CCC2)nc2ccc(/C=C/C(=O)[O-])cc21.[Na+]` [amorphous Compound (1) sodium salt], in series [3], the “physical and chemical stability” value is “acceptable physical and chemical stability”. Further, the “% dissolved (kinetic dissolution)” value in series [4] is recorded as “about 35%”.
